Assay results from ChEMBL document CHEMBL1201862, “PubChem BioAssay data set” (2004).
Activity calls are given as the source filed them.

Tests used:
[1] = molecular target: T1, Hexokinase-1 (Homo sapiens, UniProt P19367); experiment: SAR analysis of small molecule inhibitors of hexokinase domain containing I (HKDC1) in the hexokinase 1 selectivity assay. [Related pubchem assays (depositor defined):AID493160, AID493190]; assay type: functional
T1 sequence (P19367 whole entry): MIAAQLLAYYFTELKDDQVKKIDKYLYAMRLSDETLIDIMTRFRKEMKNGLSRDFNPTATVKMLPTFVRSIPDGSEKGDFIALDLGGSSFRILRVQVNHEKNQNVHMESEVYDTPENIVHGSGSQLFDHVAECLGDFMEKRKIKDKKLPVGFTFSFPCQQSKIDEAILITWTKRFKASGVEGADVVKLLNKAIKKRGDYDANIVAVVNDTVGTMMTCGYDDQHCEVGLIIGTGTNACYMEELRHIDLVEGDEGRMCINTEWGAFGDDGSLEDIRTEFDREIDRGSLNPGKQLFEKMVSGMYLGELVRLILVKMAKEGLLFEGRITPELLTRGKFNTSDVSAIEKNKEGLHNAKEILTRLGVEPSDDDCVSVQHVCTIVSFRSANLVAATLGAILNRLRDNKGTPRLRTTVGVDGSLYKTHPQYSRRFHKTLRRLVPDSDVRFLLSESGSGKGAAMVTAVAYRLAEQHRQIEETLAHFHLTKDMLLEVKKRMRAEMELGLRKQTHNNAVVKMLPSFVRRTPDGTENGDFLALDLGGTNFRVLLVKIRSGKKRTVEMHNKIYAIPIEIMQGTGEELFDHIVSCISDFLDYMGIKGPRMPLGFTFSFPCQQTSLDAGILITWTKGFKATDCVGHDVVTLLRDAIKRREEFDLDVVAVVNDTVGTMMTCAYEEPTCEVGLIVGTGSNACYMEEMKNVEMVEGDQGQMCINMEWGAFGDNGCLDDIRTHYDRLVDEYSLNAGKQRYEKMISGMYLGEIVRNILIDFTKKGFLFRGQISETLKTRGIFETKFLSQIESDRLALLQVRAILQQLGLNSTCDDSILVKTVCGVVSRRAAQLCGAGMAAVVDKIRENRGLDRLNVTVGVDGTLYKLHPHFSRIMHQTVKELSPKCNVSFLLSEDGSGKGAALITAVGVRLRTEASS

[2] = molecular target: T2, Hexokinase HKDC1 (Homo sapiens, UniProt Q2TB90); experiment: SAR analysis of small molecule inhibitors of hexokinase domain containing I (HKDC1). [Related pubchem assays (depositor defined):AID493160, AID493190]; assay type: functional
T2 sequence (Q2TB90 whole entry): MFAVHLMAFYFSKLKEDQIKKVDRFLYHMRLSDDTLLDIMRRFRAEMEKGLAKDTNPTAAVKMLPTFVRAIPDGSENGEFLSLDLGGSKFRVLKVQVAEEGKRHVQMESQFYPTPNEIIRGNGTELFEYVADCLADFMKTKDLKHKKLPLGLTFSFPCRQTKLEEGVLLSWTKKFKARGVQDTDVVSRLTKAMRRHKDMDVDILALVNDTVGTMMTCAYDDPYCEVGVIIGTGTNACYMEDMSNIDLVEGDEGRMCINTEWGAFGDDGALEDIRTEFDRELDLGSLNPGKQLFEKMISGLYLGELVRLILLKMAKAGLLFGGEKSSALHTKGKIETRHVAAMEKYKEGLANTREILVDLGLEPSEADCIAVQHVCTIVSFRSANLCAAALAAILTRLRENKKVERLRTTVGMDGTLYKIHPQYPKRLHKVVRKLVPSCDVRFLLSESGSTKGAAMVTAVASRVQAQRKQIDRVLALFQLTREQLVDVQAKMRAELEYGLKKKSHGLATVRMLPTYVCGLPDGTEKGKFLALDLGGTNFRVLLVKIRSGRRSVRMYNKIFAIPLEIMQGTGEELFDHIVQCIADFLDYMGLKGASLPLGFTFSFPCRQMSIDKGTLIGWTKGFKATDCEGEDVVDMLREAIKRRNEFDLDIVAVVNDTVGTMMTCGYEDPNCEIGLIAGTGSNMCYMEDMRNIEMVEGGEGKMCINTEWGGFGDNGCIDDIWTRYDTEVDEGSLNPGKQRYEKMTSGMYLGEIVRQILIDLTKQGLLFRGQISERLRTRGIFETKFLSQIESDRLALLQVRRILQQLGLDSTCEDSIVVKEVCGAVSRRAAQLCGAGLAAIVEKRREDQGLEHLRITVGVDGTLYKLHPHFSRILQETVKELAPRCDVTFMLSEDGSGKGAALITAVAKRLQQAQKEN

[3] = inhibitors of cytokine-induced nitrite release, dose response, cell-based, Griess absorbance, INS-1E, dry powder, set 3 (AID 488870); assay type: functional; settings: Rattus norvegicus
[4] = system: INS1; experiment: inhibitors of cytokine-induced nitrite release, dose response, cell-based, Griess absorbance, INS-1E, dry powder, set 2 (AID 488868); assay type: functional; settings: Rattus norvegicus
[5] = P. falciparum Dd2 growth inhibitors, dose response, SYBR Green, cherry-picked samples (AID 1159567); assay type: functional, cell-based
[6] = molecular target: T3, Insulin-degrading enzyme (Homo sapiens, UniProt P14735); experiment: activators of recombinant IDE enzyme, dose response, counter-screen for IDE activator project, biochemical, fluorescence polarization (AID 588681)
T3 sequence (P14735 whole entry): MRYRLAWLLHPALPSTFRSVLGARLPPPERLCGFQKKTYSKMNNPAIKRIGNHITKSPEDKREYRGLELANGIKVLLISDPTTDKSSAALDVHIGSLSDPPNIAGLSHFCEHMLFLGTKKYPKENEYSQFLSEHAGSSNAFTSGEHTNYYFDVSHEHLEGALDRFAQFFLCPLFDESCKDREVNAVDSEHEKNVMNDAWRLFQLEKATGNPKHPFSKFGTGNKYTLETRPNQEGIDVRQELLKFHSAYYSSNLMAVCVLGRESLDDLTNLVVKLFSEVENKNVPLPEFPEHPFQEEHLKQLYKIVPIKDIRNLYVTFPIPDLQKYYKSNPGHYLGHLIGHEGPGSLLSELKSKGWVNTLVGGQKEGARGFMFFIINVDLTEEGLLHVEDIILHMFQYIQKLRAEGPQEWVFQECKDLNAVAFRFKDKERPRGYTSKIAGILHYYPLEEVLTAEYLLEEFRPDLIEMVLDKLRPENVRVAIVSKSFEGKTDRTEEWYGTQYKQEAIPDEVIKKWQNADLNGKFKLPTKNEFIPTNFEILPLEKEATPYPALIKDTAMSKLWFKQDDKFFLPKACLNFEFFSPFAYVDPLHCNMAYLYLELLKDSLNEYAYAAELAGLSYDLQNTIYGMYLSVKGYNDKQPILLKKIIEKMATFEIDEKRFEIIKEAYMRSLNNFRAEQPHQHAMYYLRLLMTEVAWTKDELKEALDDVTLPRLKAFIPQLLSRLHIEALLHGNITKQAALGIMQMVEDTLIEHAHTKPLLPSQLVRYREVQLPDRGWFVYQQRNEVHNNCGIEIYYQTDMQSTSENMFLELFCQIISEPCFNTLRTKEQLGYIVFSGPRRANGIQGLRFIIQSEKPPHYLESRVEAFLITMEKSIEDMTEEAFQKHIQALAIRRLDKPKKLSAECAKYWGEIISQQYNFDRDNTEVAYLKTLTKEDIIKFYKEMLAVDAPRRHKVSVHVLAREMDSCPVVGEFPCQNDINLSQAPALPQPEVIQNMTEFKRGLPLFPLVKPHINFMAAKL

[7] = molecular target: T3, Insulin-degrading enzyme; experiment: activators of endogenous IDE in HEK cells, dose response, cell-based, fluorescence polarization (AID 588439); assay type: functional
[8] = system: HEK293; experiment: HEK cell cytotoxicity by LDH release, dose response, cytotoxicity control for IDE activator project, fluorescence, HEK cells (AID 588440); assay type: functional, cell-based; settings: Homo sapiens;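 note: cytotoxicity by LDH release measuring loss of membrane integrity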
[9] = system: HEK293; experiment: optical interference in Abeta FP readout, dose response, artefact control for IDE activator project, biochemical, fluorescence polarization (AID 588442); assay type: functional, cell-based; settings: Homo sapiens

IC50 [1]	IC50 [2]	SMILES	AC50 [3]	AC50 [4]	also measured
> 80 µM (inactive)	> 80 µM (inactive)	O=c1c2ccccc2nc(/C=C/c2cccnc2)n1Cc1ccc(F)cc1			
		C[C@@H]1CN([C@@H](C)CO)C(=O)c2cccc(NC(=O)Nc3cccc4ccccc34)c2O[C@H]1CN(C)C(=O)NC1CCCCC1	37.8 µM (active)	24.6 µM (active)	AC50 [5]: 5.39 µM (active)
		COc1ccccc1S(=O)(=O)N(C)C[C@@H]1Oc2c(NC(=O)Nc3cccc4ccccc34)cccc2C(=O)N([C@@H](C)CO)C[C@H]1C	45.1 µM (active)	47.2 µM (active)	
> 80 µM (inactive)	9.9 µM (active)	Cc1cc(C)c(S(=O)(=O)Nc2cc(SCCC(=O)O)c(O)c3ccccc23)cc1C			
		NC(=O)Cn1cc(/C=N\NS(=O)(=O)c2ccc(Cl)cc2)c2ccccc21			EC50 [6]: > 54.7 µM (inactive); EC50 [7]: > 54.7 µM (inactive); IC50 [8]: > 89.1 µM (inactive); EC50 [9]: > 55.9 µM (inactive)
